{"source": "patent US20020169123A1", "about": "“Regulating apoptosis in TRAIL-resistant cancer cells, while protecting normal, non-cancerous cells” (THE TRUSTEES OF THE UNIVERSITY OF PENNSYLVANIA, priority 2001, published 2002)", "key": {"normal human hepatocytes": {"tested_on": "normal human hepatocytes", "settings": "Ozoren et al., 2000; cited from earlier work"}, "[1]": {"tested_on": "TRAIL-resistant HCE4, TE3, and TE5 cells", "experiment": "active-caspase 3 assay, adriamycin plus TRAIL", "type": "cell-based, human", "settings": "z-LEHD-FMK 20 μM added 2 hours before TRAIL", "description": "Cells were treated with TRAIL (50 ng/mL final concentration) and 1 μg/mL of anti-6× His (N-terrninal histidine antibody) for 4 hours or for 16 hours. The caspase inhibitor was used at a final concentration of 20 μM, and was added 2 hours prior to the addition of TRAIL. When the cells were treated with both cycloheximide (CHX) and TRAIL, CHX (10 μg/mL final concentration) was added 6 hours before the addition of TRAIL. In the case of adriamycin, cells were pre-treated with adriamycin (0.5 μM final concentration) for 16 hours before the addition of TRAIL.\n(§1) For detecting apoptosis mediated by TRAIL, an active-caspase 3 assay was performed using Cytofix/Cytoperm kit (Pharmingen, San Diego, Calif.), as previously described (Kim et al., Int. J. Oncol. 18:241-247 (2001)). Briefly, using standard techniques, 5×10^5 cells were seeded into a 6 well plate, after which, the cells were treated with TRAIL cross-linked with anti-6× His antibody. […] After washing, the cells were probed with 0.125 μg/μl of Phycoerythrin (PE)-conjugated goat anti-rabbit secondary antibody (Ab) (CALTAG Laboratories, Burlingame, Calif.) for 20 minutes in the dark. The intensity of PE was analyzed by flow cytometry using a Beckman-Coulter Epics Elite analyzer.\nAccordingly, adriamycin was tested to determine whether its combination with TRAIL could induce synergistic cell killing in TRAIL-resistant esophageal cancer cells. TRAIL-resistant HCE4, TE3, and TE5 cells were pre-treated with 0.5 μM adriamycin for 16 hours, followed by incubation for 4 hours in the presence of TRAIL. z-LEHD-FMK (20 μM final concentration) was added 2 hours before the addition of TRAIL. An active-caspase 3 assay was used to determine whether apoptosis occurred.\nNext, z-LEHD-FMK was tested in the HCE4, TE3 and TE5 cells to determine the protective effect of z-LEHD-FMK, if any, on the synergistic cell death driven by the combination of adriamycin with TRAIL."}, "[2]": {"tested_on": "EPC2 normal esophageal epithelial cells", "description": "Normal human primary epithelial cells (EPC2, provided by Dr. Anil Rustgi, University of Pennsylvania) and primary human foreskin keratinocytes (HFK, provided by Dr. John C. Ansel, Emory University), were grown in Keratinocyte-SFM medium (Gibco BRL, Rockville, Md.) containing bovine pituitary extract (40 μg/mL) and epidermal growth factor (1 ng/mL). The primary epithelial cells were used at passage 4 or 5.\nThe N-terminal histidine (His) tagged recombinant human TRAIL (rhTRAIL, Thr-95 to Gly-281) was obtained from R&D Systems (Minneapolis, Minn.). A mouse monoclonal anti-6× His antibody (R&D Systems) was used for cross-linking the rhTRAIL. […] Cells were treated with TRAIL (50 ng/mL final concentration) and 1 μg/mL of anti-6× His (N-terrninal histidine antibody) for 4 hours or for 16 hours. The caspase inhibitor was used at a final concentration of 20 μM, and was added 2 hours prior to the addition of TRAIL. […] In the case of adriamycin, cells were pre-treated with adriamycin (0.5 μM final concentration) for 16 hours before the addition of TRAIL.\nas §1"}, "[3]": {"tested_on": "EPC2-GFP and TRAIL-sensitive TE2 mixed culture", "experiment": "active-caspase 3 assay in mixed culture", "type": "cell-based, human", "settings": "TRAIL 4 hours with z-LEHD-FMK", "method": "Finally, to confirm the observation that there was preferential protection of z-LEHD-FMK on normal esophageal epithelial cells in TRAIL-mediated apoptosis, but no similar protection afforded to TRAIL-sensitive esophageal cancer cells, both EPC2-GFP (2×10^5 cells) and TRAIL-sensitive TE2 (5×10^5 cells) were grown as a mixed culture in a 6-well plate. The cells were treated with TRAIL for 4 hours in the presence, or absence, of z-LEHD-FMK. An active-caspase 3 assay was performed, and the two populations within the mixed-cells were distinguished by the presence (EPC2-GFP), or absence (TE2), of GFP. […] Experiments were done in duplicate (mean value±SD)."}, "[4]": {"tested_on": "normal esophageal epithelial EPC2 cells", "experiment": "effect of Ad-ILZ-TR derived TRAIL", "type": "cell-based", "settings": "EPC2 cells in the presence of z-LEHD-FMK", "from_the_text": "To make an adenovirus expressing extra-cellular portion of TRAIL (amino acids (Aa) 95 to 281), pAdTRACK/CMV and pAdEasy systems were used as previously described (He et al., Proc. Natl. Acad. Sci. USA 95:2509-2514 (1998)). In short, the extra-cellular portion of TRAIL was amplified by PCR (polymerase chain reaction). The amplified fragment was fused directly to the signal peptide of a mouse Ig κ chain, which is secreted into the media from the cells. Then, an isoleucine zipper (ILZ) fragment was inserted between the signal peptide and TRAIL to induce self-trimerization (Harbury et al., Science 262:1401-1407 (1993)). The final resulting construct was cloned into pAdTRACK/CMV, and then a recombinant plasmid was generated in BJ5183 E. coli by co-transforming PmeI-digested TRAIL-cloned pAdTRACK/CMV and pAdEASY.\nThe recombinant plasmid was digested with PacI, and was used for transfection into […] 293 cells using Superfect (QIAGEN, Valencia, Calif.). Approximately five (5) days after transfection, when comet-like patches of the green cells appeared, the cells were harvested. The viruses were amplified and purified as previously described (El-Deiry et al., Cell 75:817-825 (1993)). The infectivity of the viruses was checked by the observation of green fluorescence using a fluorescence microscope. […]"}, "[5]": {"tested_on": "TRAIL-sensitive esophageal cancer cells", "experiment": "active-caspase 3 assay, effect of z-LEHD-FMK on TRAIL-sensitive cancer cells", "type": "cell-based, human", "settings": "extent of apoptosis slightly reduced", "method": "Next, to determine the effect of z-LEHD-FMK on TRAIL-sensitive esophageal cancer cells (i.e., could z-LEHD-FMK also protect TRAIL-sensitive esophageal cancer cells from apoptosis), an active-caspase 3 assay was performed, as described above in the assay shown in FIG. 4A."}}}
{"substance": "z-LEHD-FMK (HELM PEPTIDE1{[O=C(OCc1ccccc1)[*:2]].L.E.H.D.[FC[*:1]]}$$$$V2.0; SMILES CC(C)C[C@H](NC(=O)OCc1ccccc1)C(=O)N[C@@H](CCC(=O)O)C(=O)N[C@@H](Cc1c[nH]cn1)C(=O)N[C@@H](CC(=O)O)C(=O)CF)", "values": [{"measurement": "rescue from TRAIL-mediated apoptosis", "setting": "normal human hepatocytes", "result": "could rescue normal human hepatocytes"}, {"measurement": "effect of z-LEHD-FMK on cell death by adriamycin plus TRAIL", "setting": "[1]; HCE4 cells", "result": "still killed in a synergistic way"}, {"measurement": "effect of z-LEHD-FMK on cell death by adriamycin plus TRAIL", "setting": "[1]; TE3 and TE5 cells", "result": "almost completely blocked cell death"}, {"measurement": "protection from cell killing by TRAIL plus adriamycin", "setting": "[2]; EPC2 cells in the presence of z-LEHD-FMK", "result": "almost completely protected from cell killing"}, {"measurement": "protection from TRAIL-mediated apoptosis", "setting": "[2]; EPC2 cells, TRAIL 50 ng/mL 4 hours, z-LEHD-FMK 20 μM added 2 hours before TRAIL", "result": "completely protected"}, {"measurement": "TRAIL-mediated apoptosis in presence of z-LEHD-FMK, TE2 population", "setting": "[3]; mixed culture with EPC2-GFP", "result": "continued to undergo apoptosis"}, {"measurement": "protection from TRAIL-mediated apoptosis, EPC2-GFP population", "setting": "[3]; mixed culture with TE2", "result": "almost completely protected"}, {"measurement": "protection from cell death by Ad-ILZ-TR derived TRAIL", "setting": "[4]", "result": "completely protected from cell death"}, {"measurement": "effect of z-LEHD-FMK on TRAIL-mediated apoptosis", "setting": "[5]", "result": "still underwent apoptosis"}]}
